Experimental data: PMC12040169 (PLOS Biology, 2025)

Experiment: in vitro
Details: human, hela cells, % viability

Row | Structure (SMILES) | viability at 28.5 h, 10 µM [%]
1 | COCc1cc(CN2CCN(C)CC2)c(O)c2ncccc12 [CBK263546] | 85.1
2 | Cc1ccc(OCC(=O)Nc2sc3c(c2C#N)CCCC3)cc1 [CBK263548] | 109
3 | CSc1nc2ccc(NC(=O)CSc3nnnn3-c3ccccc3)cc2s1 [CBK263549] | 88.3
4 | Oc1ccc(Nc2nc3nonc3nc2Nc2ccccc2)cc1 [CBK263551] | 94
5 | O=C(CSc1ccccn1)Nc1ccccc1-c1ccccc1 [CBK263553] | 90.6
6 | COc1ccccc1C(=O)O/N=C1/CCCc2c1ccc(OC)c2[N+](=O)[O-] [CBK263555] | 102
7 | CCCc1c(C)nc2ccccc2c1SCC(=O)O [CBK263558] | 93.7
8 | Cc1ccc(C(=O)Nc2ccccc2C(=O)N2CCN(Cc3ccccc3)CC2)cc1 [CBK263560] | 94
9 | CCOc1cccc(N2C(=O)CC(N3CCC(C(N)=O)(N4CCCCC4)CC3)C2=O)c1 (stereo not shown) [CBK263562] | 99
10 | Cc1ccc(SCCNS(=O)(=O)c2ccc(C)cc2)cc1 [CBK263564] | 108
11 | Cc1ccc(S(=O)(=O)NCCSc2ccccn2)cc1[N+](=O)[O-] [CBK263566] | 82.5
12 | Cc1ccc(S(=O)(=O)N(CC(O)CN2CCCCC2)c2ccccc2)cc1 (stereo not shown) [CBK263570] | 97.7
13 | Cc1ccc(S(=O)(=O)N(CC(O)CN2C(=O)NC(C)(C)C2=O)c2ccccc2[N+](=O)[O-])cc1 (stereo not shown) [CBK263572] | 95.3
14 | COc1cc(NC(=O)c2nn3c(c2Br)NC(c2cccs2)CC3C(F)(F)F)c(OC)cc1Cl (stereo not shown) [CBK263573] | 93.1
15 | c1ccc(CN(Cc2ccccc2)Cn2c3ccccc3c3ccccc32)cc1 [CBK263575] | 93.6
16 | CC(=O)Nc1ccc(S(=O)(=O)NCCSc2ccccn2)cc1 [CBK263576] | 90.1
17 | O=[N+]([O-])c1cc(C(F)(F)F)ccc1NCCNC(=S)Nc1ccc(Cl)cc1 [CBK263578] | 92.9
18 | Cc1ccc(N(CC(O)CN2C(=O)NC(C)(C)C2=O)S(=O)(=O)c2ccccc2)cc1 (stereo not shown) [CBK263580] | 99.2
19 | COc1ccccc1N(CC(O)CN1C(=O)NC(C)(C)C1=O)S(=O)(=O)c1ccc(C)cc1 (stereo not shown) [CBK263581] | 99.4
20 | Oc1ccc2ccccc2c1Cc1c(O)ccc2ccccc12 [CBK263583] | 72.9
21 | O=C(NC(Nc1cccc(C(F)(F)F)c1)C(=O)c1ccccc1)c1ccc(Cl)cc1 (stereo not shown) [CBK263585] | 89.5

Row | Structure (SMILES) | viability at 28.5 h, 10 µM [%]
22 | [O-][n+]1c2c([n+]([O-])c3c1CCCC3)CCCCC2 [CBK263586] | 95.5
23 | O=C(c1ccc(S(=O)(=O)N2CCCC2)cc1)N1CCN(C/C=C/c2ccccc2)CC1 [CBK263587] | 103
24 | O=C(NCc1ccc2c(c1)OCO2)c1ccc(S(=O)(=O)N2CCCC2)cc1 [CBK263590] | 108
25 | COc1ccc(N2C(=O)CC(NCCNc3ccc([N+](=O)[O-])cn3)C2=O)cc1 (stereo not shown) [CBK263593] | 85.3
26 | O=C(COc1ccccc1)Nc1ccccc1CO [CBK263596] | 97.9
27 | O=C(O)CCC(NC(=O)c1ccc(Cl)cc1)C(=O)O (stereo not shown) [CBK263597] | 94.2
28 | O=C(COc1ccc2ccccc2c1)Nc1ccc(Cl)cc1Cl [CBK263598] | 106
29 | Cc1ccc(OCC(=O)Nc2ccccc2CO)cc1 [CBK263600] | 88.7
30 | COC(=O)CC(C)(C)/C(C)=N/NS(=O)(=O)c1ccc(C)cc1 [CBK263602] | 86.7
31 | O=C(O)c1ccc(N2C(=O)c3ccc(Oc4ccc(S(=O)(=O)c5ccc(C(=O)O)cc5)cc4)cc3C2=O)cc1 [CBK263603] | 96.8
32 | O=C(COc1cccc([N+](=O)[O-])c1)Nc1cc(C(=O)O)cc(C(=O)O)c1 [CBK263604] | 114
33 | N=C1NC(=O)/C(=C/c2ccc(OS(=O)(=O)c3ccc4ccccc4c3)cc2)S1 [CBK263605] | 106
34 | O=C(O)c1ccc(S(=O)(=O)c2ccc(Oc3ccc4c(c3)C(=O)N(c3cccc(C(=O)O)c3)C4=O)cc2)cc1 [CBK263608] | 96.7
35 | COc1cc(/C=C2\SC(=N)NC2=O)cc(Br)c1OS(=O)(=O)c1ccc(C)cc1 [CBK263609] | 95.1
36 | N=C1NC(=O)/C(=C/c2cccc(OCc3cccc4ccccc34)c2)S1 [CBK263610] | 93.9
37 | CC1=NN(c2ccc(S(N)(=O)=O)cc2)C(=O)/C1=C\c1ccc(-c2ccc(Cl)c([N+](=O)[O-])c2)o1 [CBK263612] | 98.8
38 | O=C(/C=C/c1ccc([N+](=O)[O-])cc1)Nc1ccc(O)cc1C(=O)O [CBK263613] | 81
39 | O=C(/C=C/c1cccc([N+](=O)[O-])c1)Nc1ccc(O)cc1C(=O)O [CBK263615] | 87.3
40 | CC(NC(=O)/C(=C\c1ccc(Cl)cc1)NC(=O)c1ccco1)C(=O)O (stereo not shown) [CBK263617] | 93
41 | Cc1nc(SCC(=O)O)nc(O)c1Oc1ccccc1 [CBK263621] | 103
42 | OCCN(CC#CCC(O)(c1ccccc1)c1ccccc1)CCO [CBK263623] | 94.1

Row | Structure (SMILES) | viability at 28.5 h, 10 µM [%]
43 | O=C(NCCN1CCOCC1)c1cc(-c2cccc(Br)c2)nc2ccccc12 [CBK263625] | 90.2
44 | COc1cc2nc3c4ccccc4n(CC(=O)O)c3nc2cc1OC [CBK263626] | 86.8
45 | COc1ccc(OC(C)C(=O)Nc2cc(OC)c(Cl)cc2OC)cc1 (stereo not shown) [CBK263627] | 96
46 | COC(=O)CCNc1nc(-c2ccc(Br)cc2)nc2ccccc12 [CBK263628] | 97.9
47 | O=C(NCCCN1CCOCC1)c1c(Cl)cccc1Cl [CBK263631] | 93
48 | COc1ccc(CN2CCN(Cc3cc(Br)ccc3O)CC2)cc1OC [CBK263632] | 95.5
49 | O=C(CCCN1C(=O)/C(=C\c2cccs2)SC1=S)Nc1cccc(C(=O)O)c1 [CBK263636] | 98.4
50 | O=C(c1cccnc1)N1CCN(CCN2C(=O)C3C4C=CC(C4)C3C2=O)CC1 (stereo not shown) [CBK263639] | 98.2
51 | CC(C)(C)c1ccc(/C=C/C(=O)n2cccn2)cc1 [CBK263645] | 85.7
52 | COc1ccc(C2CC(=O)C(=CNCCCN3CCOCC3)C(=O)C2)cc1 (stereo not shown) [CBK263647] | 84.9
53 | Cc1ccc(C)c(NC(=O)c2sc3cc(C)ccc3c2Cl)c1 [CBK263648] | 90.3
54 | Cc1ccnc(NS(=O)(=O)c2ccc(NC(=O)c3cc(-c4ccc(Br)cc4)nc4ccccc34)cc2)n1 [CBK263650] | 96.8
55 | CCOc1ccc(/N=c2\scc(-c3ccc(OC)c(Br)c3)n2CCc2ccccc2)cc1 [CBK263654B] | 74.7
56 | COc1cc(/C=C2/SC(=S)N(CCC(=O)N3CCN(C)CC3)C2=O)cc(OC)c1OC [CBK263656] | 88.1
57 | COc1ccc(NC(=O)CSc2nc(O)cc(-c3ccccc3)n2)cc1OC [CBK263657] | 96.1
58 | Cc1cc(OCC(=O)NCc2cccnc2)cc(C)c1Cl [CBK263658] | 86.5
59 | CCNC(=S)N1CCN(CCNC=C2C(=O)CC(C)(C)CC2=O)CC1 [CBK263661] | 90.1
60 | Oc1ccc(Br)cc1CN1CCN(Cc2cccc3ccccc23)CC1 [CBK263662] | 87
61 | CCCCOC(=O)c1ccc(NC(=O)c2c(Cl)cccc2Cl)cc1 [CBK263664] | 88.2
62 | O=C1CC(c2ccco2)CC(=O)C1=CNCCN1CCNCC1 (stereo not shown) [CBK263668] | 99.7
63 | O=C(CCCN1C(=O)/C(=C\c2cccs2)SC1=S)Nc1cc(Cl)ccc1O [CBK263673] | 99.5

Row | Structure (SMILES) | viability at 28.5 h, 10 µM [%]
64 | O=C(O)c1cc(-c2cccnc2)nc2ccc(Br)cc12 [CBK263674] | 105
65 | O=C(O)C1C2CCC(O2)C1C(=O)Nc1ccc2c(c1)OCCO2 (stereo not shown) [CBK263677] | 103
66 | Cc1ccc(CN2C(=O)CSC2c2cn(-c3ccccc3)nc2-c2ccccc2)cc1 (stereo not shown) [CBK263678] | 94.5
67 | Cc1ccc(C(=O)O)cc1NC(=O)C1CCCCC1C(=O)O (stereo not shown) [CBK263679] | 93.5
68 | COc1ccc(C(=O)NC(Nc2ccccc2)C(Cl)(Cl)Cl)cc1OC (stereo not shown) [CBK263680] | 106
69 | O=C(O)CCC(=O)c1cccc([N+](=O)[O-])c1 [CBK263681] | 101
70 | Cc1ccc2c(Cl)c(-c3nnc(-c4ccc(Cl)cc4)o3)sc2c1 [CBK263682] | 106
71 | CCC12CN3CC(CC)(CN(C1)C3c1ccc([N+](=O)[O-])cc1)C2=O (stereo not shown) [CBK263689] | 108
72 | O=C(CCCOc1ccccc1)Nc1ccc([N+](=O)[O-])cc1 [CBK263690] | 97.9
73 | O=C(NC(=S)Nc1ccc2oc(-c3cccc4ccccc34)nc2c1)c1ccco1 [CBK263691] | 95.5
74 | c1ccc(CCNc2c3c(nc4ccccc24)CCC3)cc1 [CBK263693C] | 92.2
75 | O=C1c2ccccc2C(=O)N1CSc1nnc(SCN2C(=O)c3ccccc3C2=O)s1 [CBK263694] | 96.9
76 | CC(C)(C)c1ccc(/C=N/NC(=O)CCSc2ccc(Cl)cc2)cc1 [CBK263696] | 105
77 | O=C(Nc1cccc(C(=O)O)c1)/C(=C\c1ccc2c(c1)OCO2)NC(=O)c1ccccc1 [CBK263697] | 113
78 | CN1CN=C2SC3(COC(c4cccc(Br)c4)OC3)C(=O)N2C1 (stereo not shown) [CBK263700] | 93.1
79 | O=C(/C=C/c1ccccc1)ONC(=O)c1ccc(Cl)cc1 [CBK263702] | 111
80 | COc1ccc(C2Nc3ccccc3C(=O)N2c2ccc(C)cc2)cc1Cn1nc(C)c([N+](=O)[O-])c1C (stereo not shown) [CBK263703] | 106
81 | O=C(Nc1cccc(C(=O)O)c1)/C(=C\c1ccccc1)NC(=O)c1ccccc1Cl [CBK263710] | 90.4

Same assay, conditions: human, hela cells, % viability, bulk resorufin, single well

Row | Structure (SMILES) | viability at 28.5 h, 10 µM [%]
82 | Cc1cc(C)cc(N2C(=O)NC(=O)/C(=C\c3ccccc3Br)C2=O)c1 [CBK263588] | 100
83 | CCOc1cc(C=C2C(=O)NC(=O)NC2=O)ccc1OS(=O)(=O)c1ccc([N+](=O)[O-])cc1 [CBK263614] | 82.9
84 | COc1ccc(CN2CCN(Cc3cc(Br)ccc3O)CC2)cc1 [CBK263640] | 99.4
85 | O=C(COc1ccc(C=C2C(=O)NC(=O)NC2=O)cc1)NCC1CCCO1 (stereo not shown) [CBK263709] | 91.9
